One data set concerns murine tumors. The conditions noted are these: more active than adriamycin; cited from earlier work.
The nature of another data set: Solubility. Type of data set: physicochemical.
In data set [1] the test system is Candida albicans, Aspergillus fumigatus, and Cladosporium spp. fungi. The experiment in a line: TLC bioassay for the detection of the biological activity. The conditions noted are these: bands at Rf 0.48 and 0.72, CHCl3-MeOH 16:1. It counts as cell-based. The method, then:
The crude extract obtained from the mycelium was spotted on a TLC plate (5×20, […]) and developed (CHCl3 -MeOH, 16:1 v/v). The plate was then marked under UV and visible light for individual spots or regions. The spores of the agar slant culture of the test organism was suspended in 10 ml of sterile physiological saline. The growth medium containing agar was then shaken well with 50 ul of the above suspension (35-40° C.) and poured over the developed TLC plate uniformly and allowed to set. The plates were then placed in a moist chamber and incubated at 26° C. for 24 to 72 hours and the zone of inhibition was recorded for the respective spots of the plate. The test organisms were Candida albicans, Aspergillus fumigatus, and Cladosporium spp. fungi and the growth medium was potato dextrose agar (PDA, 39 g/l).

In a further data set the test system is Citrobacter species. The data set is described as follows: MIC against Citrobacter species. Type of data set: cell-based. The conditions noted are these: bacterial strain, 100,000 CFU. How it is done: (§1) Known amounts of the purified substance were dissolved in DMSO and serial dilutions prepared in the same solvent. A 20 ul volume of each dilution was placed on the surface of Emmon's agar in petri-dishes seeded with various test strains of pathogenic and saprophytic fungi. The antibacterial activity was monitored using Muller-Hilton agar. The minimum inhibitory concentration (MIC) was determined by incorporating known amount of the DMSO dissolved purified substance into Emmon's liquid medium (same as stated earlier but devoid of agar) contained in test tubes. The tubes were inoculated with ca 2×10^3 CFU of the test organisms. The inoculated tubes were incubated at 26° C. and the results recorded after two to 5 days' depending upon the growth pattern of the test organisms (certain fungi grow faster than others). Tubes inoculated in an identical manner but devoid of the active substance served as controls.
(§2) Minimum inhibitory concentration of Spartanamycin-B against certain bacteria and fungi. (The substance was dissolved in DMSO, 20 ul of the solution was mixed with two ml of liquid Emmons medium containing ca 10,000 Colony forming Units of fungal test strains or 100,000 CFU's of bacterial test strains).

The next data set concerns C. quilliermondii. The experiment in a line: MIC against C. quilliermondii, broth dilution. It counts as cell-based. The conditions noted are these: fungus, ca 10,000 CFU, liquid Emmons medium, DMSO solution. How it is done: as §1, §2
For orientation: Dilution methods test growth across graded concentrations, often in twofold steps.

The next data set relates to Plebsiella pneumoniae. The experiment in a line: MIC against Plebsiella pneumoniae. It counts as cell-based. The conditions noted are these: bacterial strain, 100,000 CFU. The method, then: as §1, §2
For data set [2], the system named is S. aureus (multiple drug resistant). The data set is described as follows: MIC against S. aureus (multiple drug resistant). Type of data set: cell-based. The conditions noted are these: bacterial strain, 100,000 CFU. How it is done:
as §1, §2

In another data set the test system is C. neoformans-N-3. The data set is described as follows: MIC against C. neoformans-N-3, broth dilution. It counts as cell-based. The conditions noted are these: N = encapsulated, mucoid strain with neurotropic tendencies, ca 10,000 CFU. How it is done:
as §1, §2

Another data set has as its system C. neoformans serotype-D. The data set is described as follows: MIC against C. neoformans serotype-D, broth dilution. It counts as cell-based. The conditions noted are these: ca 10,000 CFU, liquid Emmons medium. How it is done:
as §1, §2

A further data set has as its system Rhodotorula rubra. The data set is described as follows: MIC against Rhodotorula rubra, broth dilution. It counts as cell-based. The conditions noted are these: fungus, ca 10,000 CFU, liquid Emmons medium. The method, then: as §1, §2
The next data set has as its system Escherichia coli. The experiment in a line: MIC against Escherichia coli. Type of data set: cell-based. The conditions noted are these: bacterial strain, 100,000 CFU. The method, then:
as §1, §2

The next data set concerns Aspergillus fumigatus. The experiment in a line: MIC against Aspergillus fumigatus, broth dilution. Type of data set: cell-based. The conditions noted are these: fungus, ca 10,000 CFU, liquid Emmons medium, DMSO solution. The method, then: as §1, §2
For another data set, the system named is A. flavus. The experiment in a line: MIC against A. flavus, broth dilution. It counts as cell-based. The conditions noted are these: fungus, ca 10,000 CFU, liquid Emmons medium, DMSO solution. The method, then: as §1, §2
The subject of the next data set is Pseudomonas aeruginosa. The data set is described as follows: MIC against Pseudomonas aeruginosa. It counts as cell-based. The conditions noted are these: bacterial strain, 100,000 CFU. The method, then:
as §1, §2

A further data set relates to R. glutinis. The data set is described as follows: MIC against R. glutinis, broth dilution. It counts as cell-based. The conditions noted are these: fungus, ca 10,000 CFU, liquid Emmons medium. The method, then:
as §1, §2

Another data set deals with Penicillium species. The experiment in a line: MIC against Penicillium species, broth dilution. It counts as cell-based. The conditions noted are these: fungus, ca 10,000 CFU, liquid Emmons medium, DMSO solution. How it is done:
as §1, §2

The subject of the next data set is C. neoformans serotype-C. The data set is described as follows: MIC against C. neoformans serotype-C, broth dilution. It counts as cell-based. The conditions noted are these: ca 10,000 CFU, liquid Emmons medium. How it is done:
as §1, §2

Another data set concerns Cladosporium species. The data set is described as follows: MIC against Cladosporium species, broth dilution. Type of data set: cell-based. The conditions noted are these: fungus, ca 10,000 CFU, liquid Emmons medium, DMSO solution. The method, then: as §1, §2
Another data set deals with A. niger. The data set is described as follows: MIC against A. niger, broth dilution. It counts as cell-based. The conditions noted are these: fungus, ca 10,000 CFU, liquid Emmons medium, DMSO solution. The method, then: as §1, §2
The subject of a further data set is Candida albicans. The data set is described as follows: MIC against Candida albicans, broth dilution. Type of data set: cell-based. The conditions noted are these: fungus, ca 10,000 CFU, liquid Emmons medium, DMSO solution. The method, then: as §1, §2
For data set [3], the system named is Cryptococcus neoformans-N-2. The experiment in a line: MIC against Cryptococcus neoformans-N-2, broth dilution. It counts as cell-based. The conditions noted are these: N = encapsulated, mucoid strain with neurotropic tendencies, ca 10,000 CFU. The method, then:
as §1, §2

Data set [4] is described as follows: stability on standing in 2N HCl. It counts as physicochemical. The conditions noted are these: upon standing in 2N HCl.
The next data set has as its system C. neoformans-G-3. The data set is described as follows: MIC against C. neoformans-G-3, broth dilution. The conditions noted are these: G = nonencapsulated, drypasty, highly virulent strain, ca 10,000 CFU. Type of data set: cell-based. How it is done: as §1, §2
Another data set has as its system S. aureus ATCC 25923. The data set is described as follows: MIC against S. aureus ATCC 25923. The conditions noted are these: bacterial strain, 100,000 CFU. Type of data set: cell-based. How it is done: as §1, §2
Data set [5] has as its system Staphylococcus aureus ATCC 29213. The data set is described as follows: MIC against Staphylococcus aureus ATCC 29213. The conditions noted are these: bacterial strain, 100,000 CFU. Type of data set: cell-based. The method, then:
as §1, §2

The conditions of data set [6]: comparison compounds; cited from earlier work.
In another data set the test system is fungi. The conditions noted are these: comparison compounds from Streptomyces; cited from earlier work.
The mark [7] stands for this setting: hexane, cyclohexane, water and 2N HCl.

Converted amounts (≈) assume the structure as drawn. Where two headings read alike, the source gives them in different places.

As to `CCN[C@H]1CO[C@@H](O[C@H]2[C@H](O[C@H]3C#C/C=C\C#C[C@]4(O)CC(=O)C(NC(=O)OC)=C3/C4=C\CSSSC)O[C@H](C)[C@@H](NO[C@H]3C[C@H](O)[C@H](SC(=O)c4c(C)c(I)c(O[C@@H]5O[C@@H](C)[C@H](O)[C@@H](OC)[C@H]5O)c(OC)c4OC)[C@@H](C)O3)[C@@H]2O)C[C@@H]1OC` [Calicheamicin], the “activity relative to adriamycin against murine tumors” value with murine tumors is on record as “approximately 1000 fold”.
Turning to `CCC1(O)CC(OC2CC(N(C)C)C(OC3CC4OC5CC(=O)C(C)OC5OC4C(C)O3)C(C)O2)c2c(cc3c(c2O)C(=O)c2c(O)ccc(O)c2C3=O)C1C(=O)OC` (stereo not shown) [Spartanamicin A], the Solubility result in the data set “Solubility” (1-butanol, ethanol, methanol) is recorded as “Sparingly soluble”; in the data set “Solubility” (chloroform, carbon tetrachloride, toluene, ethyl acetate, DMF, DMSO, acetonitrile, acetone and glacial acetic acid), “Soluble”; in the data set “Solubility” (setting [7]), “Insoluble”. In addition, the “solubility in methanol and ethanol” value in the data set “Solubility” is reported as “not soluble”. Further, in data set [1], the “biological activity of TLC band” value is “biologically active”.
As usually defined, the MIC is the lowest concentration found to suppress growth. `CC[C@@]1(O)C[C@H](O[C@H]2C[C@H](N(C)C)[C@H](O[C@H]3C[C@H](O)[C@H](O[C@H]4CCC(=O)[C@H](C)O4)[C@H](C)O3)[C@H](C)O2)c2c(cc3c(c2O)C(=O)c2c(O)ccc(O)c2C3=O)[C@H]1C(=O)OC` [Spartanamicin B]: the MIC entry is “not active” in the data set on Citrobacter species; 0.8 µg/mL (≈ 0.966 µM) with C. quilliermondii; 100 µg/mL (≈ 121 µM) in the data set on Plebsiella pneumoniae; “not active” in [2]; 0.6 µg/mL (≈ 0.725 µM) with C. neoformans-N-3; 0.8 µg/mL (≈ 0.966 µM) with C. neoformans serotype-D. The MIC in the data set on Rhodotorula rubra was 0.8 µg/mL (≈ 0.966 µM); with Escherichia coli, “not active”; in the data set on Aspergillus fumigatus, 0.4 µg/mL (≈ 0.483 µM); against A. flavus, 0.6 µg/mL (≈ 0.725 µM); in the data set on Pseudomonas aeruginosa, 100 µg/mL (≈ 121 µM); in the data set with R. glutinis, 0.4 µg/mL (≈ 0.483 µM). The MIC in the data set with Penicillium species came to 0.2 µg/mL (≈ 0.242 µM); in the data set on C. neoformans serotype-C, 0.8 µg/mL (≈ 0.966 µM); against Cladosporium species it was 0.4 µg/mL (≈ 0.483 µM); in the data set on A. niger it was 0.6 µg/mL (≈ 0.725 µM); against Candida albicans it was 0.2 µg/mL (≈ 0.242 µM); in data set [3] it was 0.8 µg/mL (≈ 0.966 µM). Further, the results for the MIC (in the data set with C. neoformans-G-3; with S. aureus ATCC 25923; in [5]) were 1.0 µg/mL (≈ 1.21 µM), 0.8 µg/mL (≈ 0.966 µM) and 0.8 µg/mL (≈ 0.966 µM), respectively. Also, the Solubility entry in “Solubility” (1-butanol, ethanol, methanol, acetonitrile) is “Sparingly soluble”; in “Solubility” (chloroform, carbon tetrachloride, toluene, ethyl acetate, DMF, DMSO, acetone and glacial acetic acid), “Soluble”; in the data set “Solubility” (setting [7]) it was “Insoluble”. For the same molecule, in “Solubility”, the “solubility in methanol and ethanol” value is recorded as “not soluble”. The “stability in 2N HCl” value in data set [4] is on record as “hydrolyses”. The “biological activity of TLC band” value in data set [1] was “biologically active”.
For the molecule `CCC1(O)CC(OC2CC(N(C)C)C(OC3CC(O)C(OC4CCC(=O)C(C)O4)C(C)O3)C(C)O2)c2c(cc3c(c2O)C(=O)c2c(O)ccc(O)c2C3=O)C1C(=O)OC` (stereo not shown) [cinerubin A], in data set [6], the “solubility in methanol and ethanol” value was “soluble”. Also, the antifungal properties entry in the data set on fungi is given as “not significantly antifungal”.
On to `CCC1(O)CC(OC2CC(N(C)C)C(OC3CC4OC5CC(=O)C(C)OC5OC4C(C)O3)C(C)O2)c2c(cc3c(c2O)C(=O)c2c(O)ccc(O)c2C3=O)C1C(=O)OC` (stereo not shown) [cinerubin B], for which the “solubility in methanol and ethanol” value in data set [6] is on record as “soluble”. In the data set on fungi, the antifungal properties entry is listed as “not significantly antifungal”.

Values taken from US5066585A, “Method of inhibiting fungus using novel antifungal compounds” (priority 1990, dated 1991).
